Assay results: patent publication US11214806B2, “Marker, method and kit for observing effect of compound or drug on cells in real time, and use thereof” (priority 2016, dated 2022)
Entries after “also recorded” stand apart in the source; their conditions may differ.

How the values were obtained:
[1] = system: VirE2 trafficking in N. benthamiana (Nb308A) leaf epidermal cells; experiment: Real-time VirE2-GFPcomp trafficking in agroinfiltrated tobacco leaf epidermal cells (split-GFP, confocal microscopy); assay type: cell-based; settings: for effect on VirE2 trafficking: infiltrated 6 h before observation, control 0.5% DMSO, FIG. 1b-d; for effect on real-time movement process of protein VirE2-GFP / toxicity as judged from VirE2-GFP movement: drug infiltrated into leaf six hours before observation, FIG. 11
Protocol: To visualize Agrobacterium-delivered VirE2, agroinfiltration was performed as described previously. Briefly, the bacteria were grown overnight; the cultures were diluted 50 times in MG/L and grown for 6 h. The bacteria were collected and re-suspended in infiltration buffer (10 mM MgCl2, 10 mM MES, pH5.5) to OD600=1.0. The bacterial suspension was infiltrated using a syringe to the underside of fully expended N. benthamiana leaves. The infiltrated plant was placed at 22° C. in a photoperiod of 16 h light/8 h dark. In order to observe a real-time effect of a compound or a drug on cells in real time, the inventor injected and infiltrated the compound or the drug into a leaf injected and infiltrated with A. tumefaciens EHA105virE2::GFP11 cell at an appropriate concentration, and observed with a UPLSAPO×60 N.A. 1.20 water immersion lens under a confocal microscope after six hours.
A PerkinElmer UltraView Vox Spinning Disk system with EM-CCD cameras was used for confocal microscopy. To observe leaf epidermis, agroinfiltrated leaf tissues were detached from N. benthamiana plants and put in 2% low-melting agarose gel on a glass slide with a coverslip. All images were taken in multiple focal planes (Z-stacks), and were processed to show the extended focus image or 3D opacity view by Volocity® 3D Image Analysis Software 6.2.1.
FIG. 1 illustrated Agrobacterium-delivered VirE2 trafficking on a cellular structure and entering the nucleus. A. tumefaciens EHA105virE2::GFP11 cells were infiltrated into transgenic N. benthamiana (Nb308A) leaves expressing both GFP1-10 and DsRed. […] Red, free DsRed; Green, VirE2-GFPcomp. (a) Time-lapse images of VirE2 aggregates trafficking along a linear cellular structure and entering the nucleus. Relative time is shown at the top right. Scale bar represents 20 μm. (b) Effects of chemical treatments on VirE2 trafficking. Chemicals were infiltrated into leaf samples 6 h before observation. Control, 0.5% DMSO. Colc, colchicine […] CytoD, cytochalasin D 20 μM. BFA, brefeldin A 100 μg/mL. Scale bar represents 20 μm. (c) Mean velocities of VirE2 aggregate movement after chemical treatments. Data analyzed with ANOVA and Tukey test, p<0.05. (d) Movement tracking of 20 individual VirE2 aggregates plotted to a common origin for each treatment.
FIG. 4 illustrated effects of ML-7 and myosin-tail overexpression on VirE2 trafficking. (a) Effect of ML-7, a myosin light chain kinase inhibitor, on VirE2 trafficking. A. tumefaciens EHA105virE2::GFP11 cells were infiltrated into transgenic N. benthamiana (Nb308A) leaves expressing both GFP1-10 and DsRed. The leaves were infiltrated with 100 μM ML-7 or 1% DMSO as control 4 h before imaging. […] Red, free DsRed; Green, VirE2-GFPcomp. The movement tracking of 20 individual VirE2 aggregates plotted to a common origin is shown below the figure. Scale bar represents 20 μm. (b) Mean velocity of the VirE2 aggregates after ML-7 treatment. (c) Effects of myosin-tail overexpression on VirE2 trafficking. A. tumefaciens EHA105virE2::GFP11 cells harboring a binary plasmid which encodes a tail fragment of respective myosins downstream of 35S promoter were infiltrated into transgenic N. benthamiana (Nb308A) leaves expressing both GFP1-10 and DsRed. […] Red, free DsRed; Green, VirE2-GFPcomp. The movement tracking of 20 individual VirE2 aggregates plotted to a common origin is shown below the figure. Scale bar represents 20 μm. (d) Mean velocity of VirE2 aggregate movement under overexpression of myosin tails. EV, empty vector control. (e) Western analysis of crude extracts from leaf samples agroinfiltrated with myosin-tail constructs. EV, empty vector control. Myosin tails were HA tagged. GFP1-10 was detected to assess the amount of sample loaded, as shown in the lower panel. […]
FIG. 11 illustrated an effect of a drug on VirE2 movement. A. tumefaciens EHA105virE2::GFP11 cell was injected and infiltrated into a transgenic tobacco line Nb308A constantly expressing a GFP1-10 and a DsRed. […]

actin structures = experiment: Effects of chemicals on cellular structures: actin marker tdTomato-ABD2; assay type: cell-based, N. benthamiana; settings: 20 μM cytochalasin D at 6 h before imaging; tobacco leaves
Protocol: (§1) FIG. 5 illustrated effects of chemicals on respective cellular structures. Wild type N. benthamiana leaves were agroinfiltrated with binary plasmids encoding different fluorescent markers. The epidermal cells were examined at 2 d post agroinfiltration under confocal microscope with Olympus UPLSAPO 60×N.A. 1.20 water immersion objective. Upper panels a-c: leaf samples expressing subcellular markers. Lower panels d-f: leaf samples expressing subcellular markers were treated with chemicals. (a) RFP-MBD. MBD, Microtubule Binding Domain. (b) ER-mCherry. (c) tdTomato-ABD2. ABD, Actin Binding Domain. (d) RFP-MBD. Leaf samples were treated with 500 μM colchicine at 6 h before imaging. (e) ER-mCherry. Leaf samples were treated with 100 μg/mL BFA at 6 h before imaging. (f) tdTomato-ABD. Leaf samples were treated with 20 μM cytochalasin D at 6 h before imaging. Scale bar represents 20 μm.

ER = experiment: Effects of chemicals on cellular structures: ER marker ER-mCherry; assay type: cell-based, N. benthamiana; settings: 100 μg/mL BFA at 6 h before imaging; tobacco leaves
Protocol: as §1

microtubule = experiment: Effects of chemicals on cellular structures: microtubule marker RFP-MBD; assay type: cell-based, N. benthamiana; settings: 500 μM colchicine at 6 h before imaging; tobacco leaves
Protocol: as §1

root segments = experiment: Effect of ML-7 on root segment viability; assay type: cell-based, A. thaliana; settings: 10 μM ML-7 for 2 days, in the presence of hormones (auxin and cytokinin); FIG. 9c
Protocol: (§2) The inventor wants to determine if the VirE2 movement observed during our studies is directly relevant to Agrobacterium-mediated transformation. The present invention tested the effect of a selective myosin light chain kinase inhibitor ML-7 on Arabidopsis root transformation. Root segments were inoculated with a tumor inducing strain A348 in the presence of 10 μM ML-7. […] The present invention tested the toxicity of ML-7 on either the root or Agrobacterium growth at 10 μM ML-7. The root segments were exposed to 10 μM of ML-7 for 2 days, which was the time span for the bacterium-Arabidopsis co-cultivation.
(§3) FIG. 9 illustrated effects of ML-7 treatment on root tumorigenesis assay. Root segments from 10-day old wild type A. thaliana seedlings were infected with a tumor inducing Agrobacterium stain A348. Tumors were photographed three weeks later. (a) Tumors formed with or without ML-7 treatment. ML-7 was added (10 μM) into the col-cultivation mixture and then washed off when the root segments were transferred onto new plates for tumor formation. (b) Tumorigenesis efficiency as determined by percentage of root segments with tumors. (c) Effect of ML-7 on root segment viability. (d) Effect of ML-7 on Agrobacterium viability

Agrobacterium = experiment: Effect of ML-7 on Agrobacterium viability; assay type: cell-based, A. tumefaciens; settings: 10 μM ML-7
Protocol: as §2, §3

[2] = system: Arabidopsis root transformation; experiment: Root tumorigenesis assay (Arabidopsis root transformation with tumor inducing strain A348); assay type: cell-based, A. thaliana; settings: 10 μM ML-7 in co-cultivation mixture, FIG. 9
Protocol: Arabidopsis thaliana seeds were surface-sterilized with 0.5% NaClO solution and placed onto solidified ½×MS medium supplemented with 1% sucrose and 0.5 g L^−1 MES, pH 5.8. The plates were then incubated under a 16 hour photoperiod at 25° C. for 10 to 12 days. Roots from individual seedlings were cut into 3-5 mm segments and re-suspended in 1 ml fresh ½×MS medium containing A. tumefaciens cells at a concentration of 5×10^8 cell/ml unless specified otherwise. The mixtures were spread onto a solidified ½×MS plate and subsequently incubated at 25° C. for 2 days. The root segments were aligned onto ½×MS medium plates containing […] cefotaxime and kept at 25° C. for 4 weeks before photographing.
as §3

[3] = colchicine 500 μM, cytochalasin D 20 μM, brefeldin A 100 μg/mL

SMILES: C=C1[C@@H](C)[C@H]2[C@H](Cc3ccccc3)NC(=O)[C@]23[C@H](OC(C)=O)/C=C/[C@@](C)(O)C(=O)[C@@H](C)C/C=C/[C@H]3[C@@H]1O [cytochalasin D]
- effect on VirE2 trafficking [1, 3]: severely affected
- effect on VirE2 trafficking ([1]; colchicine 500 μM, cytochalasin D 20 μM, brefeldin A 100 μg/mL, listed as CytoD): stop the VirE2 movement
- effect on actin structure (actin structures): disrupted

SMILES: C[C@H]1CCC/C=C/[C@@H]2C[C@H](O)C[C@H]2[C@H](O)/C=C/C(=O)O1 [brefeldin A]
- effect on VirE2 trafficking [1, 3]: severely affected
- effect on ER structure (ER): disrupted

SMILES: COc1cc2c(c(OC)c1OC)-c1ccc(OC)c(=O)cc1[C@@H](NC(C)=O)CC2 [colchicine]
- average velocity of VirE2 movement, relative to the control ([1]; colchicine 500 μM, cytochalasin D 20 μM, brefeldin A 100 μg/mL, 6 h before observation, over 20 events per treatment, FIG. 1c): over 60%
- effect on VirE2 trafficking [1, 3]: minor effect; also recorded: did not affect the VirE2 trafficking significantly
- effect on microtubule structure (microtubule): disrupted

SMILES: O=S(=O)(c1cccc2c(I)cccc12)N1CCCNCC1 [ML-7]
- effect on VirE2 movement ([1]; 100 μM ML-7 infiltrated 4 h before imaging, control 1% DMSO, FIG. 4): obviously stops
- decrease of average rate of the movement of the VirE2 compared with control group ([1]; 100 μM ML-7 infiltrated 4 h before imaging, control 1% DMSO, FIG. 4b): 95%
- growth of root segments (root segments): did not affect
- Agrobacterium growth (Agrobacterium): did not inhibit
- transformation efficiency (tumorigenesis) [2]: significantly reduced

SMILES: CC(=O)N1CCN(c2ccc(OCC3COC(Cn4ccnc4)(c4ccc(Cl)cc4Cl)O3)cc2)CC1 (centres unmarked) [Ketoconazole]
- effect on real-time movement process of protein VirE2-GFP [1]: does not affect
- toxicity as judged from VirE2-GFP movement [1]: less toxic

SMILES: Clc1ccc(COC(Cn2ccnc2)c2ccc(Cl)cc2Cl)cc1 (centres unmarked) [Econazole]
- effect on real-time movement process of protein VirE2-GFP [1]: significantly affects
- toxicity as judged from VirE2-GFP movement [1]: highly toxic
